Assay results: ChEMBL document CHEMBL1147469, “Design and synthesis of de novo cytotoxic alkaloids through mimicking taxoid skeleton” (Bioorg Med Chem Lett, 2004)

Experiments:
Assay type in all cases: functional, cell-based
[1] = tested on: MCF7R; test: In vitro cytotoxic activity against growth of MDR phenotype human breast carcinoma cell line (MCF-7-R) after 72 hr
[2] = tested on: MCF7S; test: In vitro cytotoxic activity against growth of human breast carcinoma cell line (MCF-7-S) after 72 hr
[3] = tested on: MDA-MB-435; test: In vitro cytotoxic activity against growth of human breast carcinoma cell line (LCC6-WT) after 72 hr; settings: MDA-MB-435, 72 h
[4] = tested on: MDA-MB-435; test: In vitro cytotoxic activity against growth of MDR1 transduced line (LCC6-MDR) after 72 hr; settings: Homo sapiens, MDA-MB-435, 72 h

With CC(=O)O[C@H]1C(=O)[C@@]2(C)[C@H]([C@H](OC(=O)c3ccccc3)[C@]3(O)C[C@H](OC(=O)[C@H](O)[C@@H](NC(=O)c4ccccc4)c4ccccc4)C(C)=C1C3(C)C)[C@]1(OC(C)=O)CO[C@@H]1C[C@@H]2O [PACLITAXEL] the IC50 ([1]; Homo sapiens, MCF7R, 72 h) was 1.19 µM, the IC50 ([2]; Homo sapiens, MCF7S, 72 h) was 0.002 µM and the IC50 [3] was 0.004 µM. The IC50 [4] was 0.379 µM.

Work on CISPLATIN yielded an IC50 ([1]; mcf7r) of 3.53 µM and an IC50 ([2]; mcf7s) of 3.97 µM.

For COc1cccc(C(=O)O[C@H]2CCC(=O)N3C[C@@H](OC(=O)[C@H](O)[C@H](CC(C)C)NC(=O)OC(C)(C)C)C[C@H]23)c1, the IC50 ([1]; Homo sapiens, MCF7R, 72 h) was > 20 µM, the IC50 ([2]; Homo sapiens, MCF7S, 72 h) was 14 µM and the IC50 [3] was > 20 µM. For the same molecule, the IC50 [4] was > 20 µM.

With CC(C)C[C@@H]1NC(=O)OCCCc2cccc(c2)C(=O)O[C@H]2C=CC(=O)N3C[C@H](C[C@H]23)OC(=O)[C@@H]1O the IC50 ([1]; Homo sapiens, MCF7R, 72 h) was > 20 µM, the IC50 ([2]; Homo sapiens, MCF7S, 72 h) was > 20 µM and the IC50 [3] was > 20 µM. For the same molecule, the IC50 [4] was > 20 µM.
